Assay results taken from PubChem BioAssay AID1117345.
Calls of active or inactive are those of the source. No rule for the calls is given here.

Each compound was assayed on STC-1 cells GLP-1 secretion (assay: half-maximal inhibitory concentration, STC-1 line, glucagon-like peptide-1 release potency, dose-dependent response (AID 1117345)).

| Structure (SMILES) | IC50 |
| --- | --- |
| CCCCCCCCCCCCCC[N+](C)(C)C | > 40 µM (inactive) |
| CC(=O)[O][Hg][c]1ccccc1 | 0.713 µM |
| CCCCCCCCCCCC(=O)[O][Sn]([CH2]CCC)([CH2]CCC)[O]C(=O)CCCCCCCCCCC | > 40 µM (inactive) |
| OCCN1CCN(CC/C=C2/c3ccccc3Sc3ccc(C(F)(F)F)cc32)CC1 | > 40 µM (inactive) |
| Cc1ccc([N+](=O)[O-])[c]2c1[O][Hg]2 | 0.0972 µM |
